According to PMC4569848 (Nature Communications, 2015):
“Also recorded” adds a separate entry of the source. No end group written: not given here. *: point of attachment. sulfate = O=S(=O)(O)*

Key:
Format in all cases: cell-based
β2AR [1] = assay: Intramolecular BRET of Luc-β-arrestin-1-YFP (arrestin conformational change); details: HEK293 cells, 10 μM ISO, 10 min
Procedure: (a) Activation of β2-AR-induced conformational changes in β-arrestin-1 as measured using intramolecular BRET. Plasmids encoding a β-arrestin-1 BRET biosensor (Luc-β-arrestin-1-YFP) and Flag-β2-AR were transiently co-transfected in HEK293 cells. After starvation, the cells were stimulated with ISO (10 μM) for 10 min. The effects of GRK phosphorylation of β2-AR on ISO-induced β-arrestin-1 conformational change were probed using siRNA-mediated GRK knockdown.
The pcDNA3.0-Flag-β2AR (Flag-β2AR), β-arrestin-1-YFP, pcDNA3.1-Luc-β-arrestin-2-YFP and pCDNA3.1-Clathrin constructs were generous gifts from Dr Lefkowitz at Duke University[21][32]. […] To monitor the β-arrestin-1 conformational change, the BRET sensor for β-arrestin-1 (pcDNA3.1-Luc-β-arrestin-1-YFP) was created by in-Fusion of the β-arrestin-1-YFP plasmid with the pcDNA3.1-Luc-β-arrestin-2-YFP construct[57][58]. […] All of the constructs and mutations were verified by DNA sequencing.
HEK 293 cells were attained from ATCC and cultured at 37 °C and 5% CO2 in DMEM containing 10% (v/v) fetal bovine serum and penicillin–streptomycin (5,000 IU l^−1). GRK2 or GRK6 expression was silenced in HEK 293 cells using a specific small interfering RNA (siRNA) duplex.

β2AR [2] = assay: Western blot of SRC activation (phospho-SRC 416); details: HEK293 cells, ISO 1, 5 and 15 min
Procedure: (b) A representative western blotting is shown for the effects of knockdown of specific GRKs in β2-AR-mediated proto-oncogene tyrosine-protein kinase (SRC) activation. Left panel: HEK293 cells that were transiently transfected with Flag-β2-AR were stimulated with ISO for 1, 5 and 15 min. To examine the roles of GRK2 and GRK6 in β2-AR-mediated SRC activation, siRNAs that were selective for specific GRKs were transfected into the cells. A western blot representative of at least three independent experiments is shown on the left. Right panel: western blot signals of phospho-SRC 416 (a) were quantified using densitometry and are expressed as fold change versus basal level. […] (a,b) At least three independent experiments were performed. #P<0.05, ISO-stimulated cells are compared with unstimulated cells. *P<0.05; **P<0.01; ***P<0.005; GRK siRNA-treated cells are compared with control siRNA-treated cells.
GRK2 or GRK6 expression was silenced in HEK 293 cells using a specific small interfering RNA (siRNA) duplex. […]
To examine the roles of GRK2 and GRK6 in β2-AR-mediated SRC activation, selective siRNA towards specific GRK and Flag-β2AR plasmids were co-transfected into HEK-293 cells. […] Lysate protein concentrations were determined using the Bradford protein assay. […] SRC-416 phosphorylation was detected using a specific antibody.

β2AR [3] = assay: Co-IP β-arrestin-1/clathrin downstream of β2AR; details: HEK293, 10 μM ISO, 15 min, β-arrestin-1 R25A (site 4) vs wild type
Excerpt: (§3) (a) The phospho-binding pattern of β-arrestin-1 determines selective arrestin functions downstream of β2AR in cells. […] The β-arrestin-1 was immunoprecipitated by HA-antibody-conjugated agarose and the formation of the β-arrestin-1/clathrin or β-arrestin-1/SRC was detected by specific clathrin or SRC antibodies. […] (a–c) Representative western blottings from at least three experiments are shown on the left and the statistics from at least three independent experiments are shown on the right. *P<0.05, **P<0.01; the effects of mutants were compared with the wild type.
(§4) To examine the effects of β-arrestin-1 mutants on ISO, CCK-8s or somatostatin induced clathrin/β-arrestin-1 or SRC/β-arrestin-1 complex formation downstream of β2AR, CCKAR and SSTR2; HEK293 cells were co-transfected with Flag-β2AR/HA-β-arrestin-1, Flag-CCKAR/HA-β-arrestin-1 or Flag-SSTR2/HA-β-arrestin-1, respectively. Different HA-β-arrestin-1 mutations were used to detect the contribution of the phosphate-binding sites of β-arrestin-1 during the arrestin/clathrin or arrestin/SRC complex formatin. […] Immune complexes were analysed by western blotting with specific antibody towards clathrin or pSRC416, respectively.Representative western blots from at least three experiments are shown in Fig. 8.

β2AR [4] = assay: Co-IP β-arrestin-1/SRC downstream of β2AR; details: HEK293, 10 μM ISO, 15 min, β-arrestin-1 R7A (site 5) vs wild type
Excerpt: as §3, §4

β2AR [5] = test system: β2AR
Procedure: To examine the effects of β-arrestin-1 mutants on ISO-induced β2AR/β-arrestin-1 complex formation, the co-immunoprecipitation experiment was performed[61][62]. In detail, HEK293 cells were co-transfected with Flag-β2AR and β-arrestin-1-YFP mutants. Twenty-four hours after transfection, the cells were starved for 4 h and then stimulated with ISO (10 μM) for 10 min. The cell lysates were subjected to immunoprecipitation using anti-FLAG beads incubated overnight at 4 °C. Immune complexes were analysed by western blotting with specific antibodies. The associated β-arrestin 1-YFP was detected using an anti-YFP antibody.

CCKAR [6] = assay: Co-IP β-arrestin-1/clathrin downstream of CCKAR; details: HEK293, 2 μM CCK-8s
Procedure: (§1) Figure 8 Phospho-pattern-selective mechanisms of specific arrestin functions are common for at least a subset of GPCRs. (a) The phospho-binding pattern of β-arrestin-1 determines selective arrestin functions downstream of β2AR in cells. HEK293 cells were co-transfected with Flag-β2AR and wild-type HA-β-arrestin-1 or specific phosphate-binding site mutants (R25A for site 4 and R7A for site 5), then stimulated with 10 μM isoproterenol (ISO) for 15 min. The β-arrestin-1 was immunoprecipitated by HA-antibody-conjugated agarose and the formation of the β-arrestin-1/clathrin or β-arrestin-1/SRC was detected by specific clathrin or SRC antibodies. […] (b,c) The phospho-binding pattern of β-arrestin-1 determines selective arrestin interaction with clathrin or SRC downstream of somatostatin receptor 2 (SSTR2, Fig. 4c) and cholecystokinin A receptor (CCKAR, Fig. 4d). […]
(§2) To examine the effects of β-arrestin-1 mutants on ISO, CCK-8s or somatostatin induced clathrin/β-arrestin-1 or SRC/β-arrestin-1 complex formation downstream of β2AR, CCKAR and SSTR2; HEK293 cells were co-transfected with Flag-β2AR/HA-β-arrestin-1, Flag-CCKAR/HA-β-arrestin-1 or Flag-SSTR2/HA-β-arrestin-1, respectively. […] Immune complexes were analysed by western blotting with specific antibody towards clathrin or pSRC416, respectively.Representative western blots from at least three experiments are shown in Fig. 8.

CCKAR [7] = assay: Co-IP β-arrestin-1/SRC downstream of CCKAR; details: HEK293, 2 μM CCK-8s, 15 min
Procedure: as §1, §2

SSTR2 [8] = assay: Co-IP β-arrestin-1/clathrin downstream of SSTR2; details: HEK293, 1 μM somatostatin
Procedure: as §1, §2

SSTR2 [9] = assay: Co-IP β-arrestin-1/SRC downstream of SSTR2; details: HEK293, 1 μM somatostatin
Procedure: as §1, §2

CC(C)NCC(O)c1ccc(O)c(O)c1 (stereo not drawn) [ISO, isoproterenol]
BRET signal of Rluc-β-arrestin-1-YFP (β2AR [1]; Flag-β2AR): significantly increased the BRET signal
BRET signal of Rluc-β-arrestin-1-YFP, GRK2 knockdown (β2AR [1]; GRK2 siRNA): significantly reduced by the knockdown of either GRK2 or GRK6
BRET signal of Rluc-β-arrestin-1-YFP, GRK6 knockdown (β2AR [1]; GRK6 siRNA): significantly reduced by the knockdown of either GRK2 or GRK6
SRC activation, role of GRK2 (knockdown) (β2AR [2]; GRK2 siRNA): GRK2 is a negative regulator of β2-AR-induced SRC activation
SRC activation, role of GRK6 (knockdown) (β2AR [2]; GRK6 siRNA): GRK6 is required for SRC activation downstream of β2-AR activation
β-arrestin-1/clathrin complex formation, R25A (β2AR [3]): selectively impaired β-arrestin-1/clathrin interaction downstream of β2AR activation; also recorded: selectively disrupted the ISO-induced β-arrestin-1/clathrin complex formation
β-arrestin-1/SRC complex formation, R7A (β2AR [4]): specifically eliminated ISO-induced β-arrestin-1/SRC association; also recorded: the ISO-induced β-arrestin-1/SRC complex formation
β2AR/β-arrestin-1 complex formation with β-arrestin-1 mutants (β2AR [5]): All of the tested β-arrestin-1 mutants bound to β2AR after ISO stimulation

CCK-8s: CCKAR agonist, 2 μM (DY(sulfate)MGWMDF; ends and bridges not checked; UniProt P06307 96-103, looked up)
β-arrestin-1/clathrin interaction (CCKAR [6]; 15 min): only promoted β-arrestin-1/clathrin interaction
β-arrestin-1/clathrin interaction, R25A (CCKAR [6]; β-arrestin-1 R25A vs wild type): selectively disrupted β-arrestin-1/clathrin interaction
β-arrestin-1/SRC recruitment (CCKAR [7]): only promoted β-arrestin-1/clathrin interaction

somatostatin
β-arrestin-1/clathrin recruitment (SSTR2 [8]; 15 min): promoted both clathrin and SRC recruitment for β-arrestin-1
β-arrestin-1/clathrin interaction, R25A (SSTR2 [8]; β-arrestin-1 R25A vs wild type): selectively disrupted β-arrestin-1/clathrin interaction
β-arrestin-1/SRC recruitment (SSTR2 [9]; 15 min): promoted both clathrin and SRC recruitment for β-arrestin-1
β-arrestin-1/SRC complex formation, R7A (SSTR2 [9]; β-arrestin-1 R7A vs wild type): impaired the β-arrestin-1/SRC complex formation
